Where only a bound is given, the exact number is not on record here.

This assay addresses CFTR (Homo sapiens, UniProt P13569). As to the kind of experiment: Membrane Potential Dye, Enteroid Assay B. The conditions noted are these: for EC50: read-out: Ent. B EC50. In kind it is cell-based. The method, then: Base medium (ADF+++) consisted of Advanced DMEM/Ham's F12, 2 mM Glutamax, 10 mM HEPES, 1 µg/mL penicillin/streptomycin.
Intestinal enteroid maintenance medium (IEMM) consisted of ADF+++, 1× B27 supplement, 1× N2 supplement, 1.25 mM N-acetyl cysteine, 10 mM Nicotinamide, 50 ng/mL hEGF, 10 nM Gastrin, 1 pg/mL hR-spondin-1, 100 ng/mL hNoggin, TGF-b type 1 inhibitor A-83-01, 100 μg/mL Primocin, […] P38 MAPK inhibitor SB202190.
Bath 1 Buffer consisted of 1 mM MgCl2, 160 mM NaCl, 4.5 mM KCl, 10 mM HEPES, 10 mM Glucose, 2 mM CaCl2).
Chloride Free Buffer consisted of 1 mM Magnesium Gluconate, 2 mM Calcium Gluconate, 4.5 mM Potassium Gluconate, 160 mM Sodium Gluconate, 10 mM HEPES, 10 mM Glucose.
Bath1 Dye Solution consisted of Bath 1 Buffer, 0.04% Pluronic F127, […] Methyl Oxonol, 30 μM CaCCinh-A01, 30 μM Chicago Sky Blue.
Chloride Free Dye Solution consisted of Chloride Free Buffer, 0.04% Pluronic F127, 20 μM Methyl Oxonol, 30 μM CaCCinh-A01, 30 μM Chicago Sky Blue.
Chloride Free Dye Stimulation Solution consisted of Chloride Free Dye Solution, 10 μM forskolin, 100 μM IBMX, and 300 nM Compound III.
Human intestinal epithelial enteroid cells were obtained from the Hubrecht Institute for Developmental Biology and Stem Cell Research, Utrecht, The Netherlands and expanded in T-Flasks as previously described (Dekkers J F, Wiegerinck C L, de Jonge H R, Bronsveld I, Janssens H M, de Winter-de Groot K M, Brandsma A M, de Jong N W M, Bijvelds M J C, Scholte B J, Nieuwenhuis E E S, van den Brink S, Clevers H, van der Ent C K, Middendorp S and M Beekman J M. A functional CFTR assay using primary cystic fibrosis intestinal organoids. Nat Med. 2013 July; 19(7):939-45.).
Cells were recovered in cell recovery solution, collected by centrifugation at 650 rpm for 5 min at 4° C., resuspended in TryPLE and incubated for 5 min at 37° C. Cells were then collected by centrifugation at 650 rpm for 5 min at 4° C. and resuspended in IEMM containing 10 μM ROCK inhibitor (RI). The cell suspension was passed through a 40 μm cell strainer and resuspended at 1×10^6 cells/mL in IEMM containing 10 μM RI. Cells were seeded at 5000 cells/well into multi-well plates and incubated for overnight at 37° C., 95% humidity and 5% CO2 prior to assay.
Enteroid cells were incubated with test compound in IEMM for 18-24 hours at 37° C., 95% humidity and 5% CO2. […] Briefly, cells were washed 5 times in Bath 1 Buffer. Bath 1 Dye Solution was added and the cells were incubated for 25 min at room temperature. Following dye incubation, cells were washed 3 times in Chloride Free Dye Solution. Chloride transport was initiated by addition of Chloride Free Dye Stimulation Solution and the fluorescence signal was read for 15 min. […] Chloride transport was then expressed as a percentage of the chloride transport following treatment with 1 μM (14S)-8-[3-(2-{Dispiro[2.0.2.1]heptan-7-yl}ethoxy)-1H-pyrazol-1-yl]-12,12-dimethyl-2λ^6-thia-3,9,11,18,23-pentaazatetracyclo[17.3.1.111,14.05,10]tetracosa-1(22),5,7,9,19(23),20-hexaene-2,2,4-trione, 3 μM (R)-1-(2,2-difluorobenzo[d][1,3]dioxol-5-yl)-N-(1-(2,3-dihydroxypropyl)-6-fluoro-2-(1-hydroxy-2-methylpropan-2-yl)-1H-indol-5-yl)cyclopropanecarboxamide and 300 nM acute N-[2,4-bis(1,1-dimethylethyl)-5-hydroxyphenyl]-1,4-dihydro-4-oxoquinoline-3-carboxamide triple combination control (% Activity).

Sequence of CFTR (P13569 with tags, fused parts or gaps DEL508-508): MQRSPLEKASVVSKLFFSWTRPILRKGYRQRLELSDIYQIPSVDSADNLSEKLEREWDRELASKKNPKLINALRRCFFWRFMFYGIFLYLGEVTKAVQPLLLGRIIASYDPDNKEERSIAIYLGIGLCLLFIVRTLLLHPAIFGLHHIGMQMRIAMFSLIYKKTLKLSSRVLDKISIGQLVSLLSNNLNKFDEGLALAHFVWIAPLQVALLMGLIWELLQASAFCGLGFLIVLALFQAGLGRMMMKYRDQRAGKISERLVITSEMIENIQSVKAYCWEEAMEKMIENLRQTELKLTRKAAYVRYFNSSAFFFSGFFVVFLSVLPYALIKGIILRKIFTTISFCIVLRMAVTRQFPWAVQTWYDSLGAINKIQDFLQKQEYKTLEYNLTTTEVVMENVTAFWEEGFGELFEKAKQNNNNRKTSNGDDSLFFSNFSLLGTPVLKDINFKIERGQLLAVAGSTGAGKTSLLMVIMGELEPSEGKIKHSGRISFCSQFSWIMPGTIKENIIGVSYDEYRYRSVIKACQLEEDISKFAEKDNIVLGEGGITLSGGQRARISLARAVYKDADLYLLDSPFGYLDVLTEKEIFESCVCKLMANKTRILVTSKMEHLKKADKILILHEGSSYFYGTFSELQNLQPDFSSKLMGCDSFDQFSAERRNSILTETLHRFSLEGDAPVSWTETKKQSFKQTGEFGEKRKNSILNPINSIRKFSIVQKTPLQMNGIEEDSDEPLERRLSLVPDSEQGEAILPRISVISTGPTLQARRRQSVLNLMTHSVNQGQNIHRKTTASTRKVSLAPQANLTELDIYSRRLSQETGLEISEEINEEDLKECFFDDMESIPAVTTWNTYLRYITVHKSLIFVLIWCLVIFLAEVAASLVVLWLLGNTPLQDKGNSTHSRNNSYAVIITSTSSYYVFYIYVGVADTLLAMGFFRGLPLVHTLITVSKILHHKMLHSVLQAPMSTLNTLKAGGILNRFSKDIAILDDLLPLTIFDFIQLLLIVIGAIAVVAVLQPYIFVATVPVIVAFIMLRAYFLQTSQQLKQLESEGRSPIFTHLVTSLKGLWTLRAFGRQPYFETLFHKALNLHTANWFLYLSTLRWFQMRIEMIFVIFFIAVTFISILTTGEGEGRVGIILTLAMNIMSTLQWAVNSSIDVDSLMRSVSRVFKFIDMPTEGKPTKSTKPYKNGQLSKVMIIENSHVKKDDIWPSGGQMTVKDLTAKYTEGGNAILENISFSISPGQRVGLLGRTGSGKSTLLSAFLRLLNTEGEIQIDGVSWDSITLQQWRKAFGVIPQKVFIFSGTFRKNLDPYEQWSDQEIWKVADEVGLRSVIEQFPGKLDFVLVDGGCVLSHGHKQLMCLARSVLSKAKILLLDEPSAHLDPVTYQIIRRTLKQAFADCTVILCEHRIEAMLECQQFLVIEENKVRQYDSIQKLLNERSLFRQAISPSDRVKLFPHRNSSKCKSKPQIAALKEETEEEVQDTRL

The EC50 is the concentration that produces a half-maximal response. On to `Cc1cccc(C)c1-c1nc2nc(c1C)OC[C@@H](CC(C)C)N([C@H]1C[C@@H](OC(C)C)C1)C(=O)c1cccc(c1)S(=O)(=O)N2` (single isomer, unassigned) [Compound 47], for which the “Ent. B Max Activity” value is “++ (++ is 30-60%)” and the EC50 was under 1000 nM.

For `Cc1cccc(C)c1-c1nc2nc(c1C)OC[C@@H](CC(C)C)N([C@H]1C[C@@H](OC(C)C)C1)C(=O)c1cccc(c1)S(=O)(=O)N2` (single isomer, unassigned) [Compound 48], the “Ent. B Max Activity” value is “+++ (+++ is >60%)” and the 50% effective concentration (EC50) is under 1000 nM.

Turning to `Cc1cccc(C)c1-c1nc2nc(c1C)OC[C@@H](CC(C)C)N([C@H]1C[C@@]3(C[C@H](NC(=O)OC(C)C)C3)C1)C(=O)c1cccc(c1)S(=O)(=O)N2` (single isomer, unassigned) [Compound 51], the “Ent. B Max Activity” value is listed as “+++ (+++ is >60%)” and the EC50 is under 1000 nM.

Consider `Cc1cccc(C)c1-c1nc2nc(c1C)OC[C@@H](CC(C)C)N([C@H]1C[C@@]3(C[C@H](NC(=O)OC(C)C)C3)C1)C(=O)c1cccc(c1)S(=O)(=O)N2` (single isomer, unassigned) [Compound 52], for which the “Ent. B Max Activity” value is listed as “+++ (+++ is >60%)” and the EC50 is under 1000 nM.

Regarding `Cc1cccc(C)c1-c1nc2nc(c1C)OC[C@@H](CC(C)C)N([C@H]1C[C@@]3(C[C@H](N(C)C)C3)C1)C(=O)c1cccc(c1)S(=O)(=O)N2` (single isomer, unassigned) [Compound 53], the “Ent. B Max Activity” value is recorded as “+++ (+++ is >60%)” and the EC50 was under 1000 nM.

In the case of `Cc1cccc(C)c1-c1nc2nc(c1C)OC[C@@H](CC(C)C)N([C@H]1C[C@@]3(C[C@H](N(C)C)C3)C1)C(=O)c1cccc(c1)S(=O)(=O)N2` (single isomer, unassigned) [Compound 54], the “Ent. B Max Activity” value was “+++ (+++ is >60%)” and the EC50 was under 1000 nM.

As to `[H][C@]1(N2C(=O)c3cccc(c3)S(=O)(=O)Nc3nc(c(C)c(-c4c(C)cccc4C)n3)OC[C@H]2CC(C)(C)C)C[C@@]2(C[C@H](C(C)(C)O)C2)C1` (single isomer, unassigned) [Compound 57], the “Ent. B Max Activity” value is listed as “+++ (+++ is >60%)” and the EC50 is under 1000 nM.

For the molecule `[H][C@]1(N2C(=O)c3cccc(c3)S(=O)(=O)Nc3nc(c(C)c(-c4c(C)cccc4C)n3)OC[C@H]2CC(C)(C)C)C[C@@]2(C[C@H](C(C)(C)O)C2)C1` (single isomer, unassigned) [Compound 58], the “Ent. B Max Activity” value is “+++ (+++ is >60%)” and the EC50 was under 1000 nM.

Consider `Cc1cccc(C)c1-c1nc2nc(c1C)OC[C@@H](CC(C)(C)C)N(C1CC3(CC(NC(=O)OC(C)(C)C)C3)C1)C(=O)c1cccc(c1)S(=O)(=O)N2` (single isomer, unassigned) [Compound 59], for which the “Ent. B Max Activity” value is “+++ (+++ is >60%)” and the EC50 was under 1000 nM.

Regarding `Cc1cccc(C)c1-c1nc2nc(c1C)OC[C@@H](CC(C)(C)C)N(C1CC3(CC(NC(=O)OC(C)(C)C)C3)C1)C(=O)c1cccc(c1)S(=O)(=O)N2` (single isomer, unassigned) [Compound 60], the “Ent. B Max Activity” value is on record as “+++ (+++ is >60%)” and the EC50 was under 1000 nM.

Take `COC(=O)NC1CC2(C1)CC(N1C(=O)c3cccc(c3)S(=O)(=O)Nc3nc(c(C)c(-c4c(C)cccc4C)n3)OC[C@H]1CC(C)(C)C)C2` (single isomer, unassigned) [Compound 61]: the “Ent. B Max Activity” value was “+++ (+++ is >60%)” and the EC50 is under 1000 nM.

As to `Cc1cccc(C)c1-c1nc2nc(c1C)OC[C@@H](CC(C)(C)C)N(C1CC3(CC(NC(=O)OC(C)C)C3)C1)C(=O)c1cccc(c1)S(=O)(=O)N2` (single isomer, unassigned) [Compound 62], the “Ent. B Max Activity” value is given as “+++ (+++ is >60%)” and the EC50 is under 1000 nM.

On to `Cc1cccc(C)c1-c1nc2nc(c1C)OC[C@@H](CC(C)(C)C)N(C1CC3(CC(N)C3)C1)C(=O)c1cccc(c1)S(=O)(=O)N2` (single isomer, unassigned) [Compound 63], for which the “Ent. B Max Activity” value was “+++ (+++ is >60%)” and the EC50 was under 1000 nM.

For the molecule `COC(=O)NC1CC2(C1)CC(N1C(=O)c3cccc(c3)S(=O)(=O)Nc3nc(c(C)c(-c4c(C)cccc4C)n3)OC[C@H]1CC(C)(C)C)C2` (single isomer, unassigned) [Compound 64], the “Ent. B Max Activity” value was “+++ (+++ is >60%)” and the EC50 was under 1000 nM.

`Cc1cccc(C)c1-c1nc2nc(c1C)OC[C@@H](CC(C)(C)C)N(C1CC3(CC(NC(=O)OC(C)C)C3)C1)C(=O)c1cccc(c1)S(=O)(=O)N2` (single isomer, unassigned) [Compound 65]: the “Ent. B Max Activity” value is listed as “+++ (+++ is >60%)” and the EC50 is under 1000 nM.

For `Cc1cccc(C)c1-c1nc2nc(c1C)OC[C@@H](CC(C)C)N(C1CC3(CC(CO)C3)C1)C(=O)c1cccc(c1)S(=O)(=O)N2` (stereo in doubt) [Compound 66], the “Ent. B Max Activity” value is given as “+++ (+++ is >60%)” and the EC50 was under 1000 nM.

Take `Cc1cccc(C)c1-c1nc2nc(c1C)OC[C@@H](CC(C)C)N(C1CC3(CC(CO)C3)C1)C(=O)c1cccc(c1)S(=O)(=O)N2` (stereo in doubt) [Compound 67]: the “Ent. B Max Activity” value is reported as “+++ (+++ is >60%)” and the EC50 is under 1000 nM.

Consider `COC(=O)NC1CC2(C1)CC(N1C(=O)c3cccc(c3)S(=O)(=O)Nc3nc(c(C)c(-c4c(C)cccc4C)n3)OC[C@H]1CC(C)C)C2` (stereo in doubt) [Compound 68], for which the “Ent. B Max Activity” value is recorded as “+++ (+++ is >60%)” and the EC50 is under 1000 nM.

Consider `COC(=O)NC1CC2(C1)CC(N1C(=O)c3cccc(c3)S(=O)(=O)Nc3nc(c(C)c(-c4c(C)cccc4C)n3)OC[C@H]1CC(C)C)C2` (stereo in doubt) [Compound 69], for which the “Ent. B Max Activity” value is “+++ (+++ is >60%)” and the EC50 was under 1000 nM.

`COC1CC(N2C(=O)c3cccc(c3)S(=O)(=O)Nc3nc(c(C)c(-c4c(C)cccc4C)n3)OC[C@H]2CC(C)C)C1` (stereo in doubt) [Compound 71]: the “Ent. B Max Activity” value is on record as “+++ (+++ is >60%)” and the EC50 was under 1000 nM.

For `COC1CC(N2C(=O)c3cccc(c3)S(=O)(=O)Nc3nc(c(C)c(-c4c(C)cccc4C)n3)OC[C@H]2CC(C)C)C1` (stereo in doubt) [Compound 72], the “Ent. B Max Activity” value is “+++ (+++ is >60%)” and the EC50 is under 1000 nM.

In the case of `Cc1cccc(C)c1-c1nc2nc(c1C)OC[C@@H](CC(C)(C)C)N(C1CC3(CC(CO)C3)C1)C(=O)c1cccc(c1)S(=O)(=O)N2` (stereo in doubt) [Compound 78], the “Ent. B Max Activity” value is listed as “+++ (+++ is >60%)” and the EC50 is under 1000 nM.

For the molecule `Cc1cccc(C)c1-c1nc2nc(c1C)OC[C@@H](CC(C)(C)C)N(C1CC3(CC(CO)C3)C1)C(=O)c1cccc(c1)S(=O)(=O)N2` (stereo in doubt) [Compound 79], the “Ent. B Max Activity” value is listed as “+++ (+++ is >60%)” and the EC50 is under 1000 nM.

Regarding `COC(=O)NC1CC2(C1)CC(N1C(=O)c3cccc(c3)S(=O)(=O)Nc3nc(c(C)c(-c4c(C)cccc4C)n3)OC[C@H]1CC1(C(F)(F)F)CC1)C2` (stereo in doubt) [Compound 86], the “Ent. B Max Activity” value is “+++ (+++ is >60%)” and the EC50 is under 1000 nM.

With `Cc1cccc(C)c1-c1nc2nc(c1C)OC[C@@H](CC1(C(F)(F)F)CC1)N(C1CC3(CC(NC(=O)OC(C)C)C3)C1)C(=O)c1cccc(c1)S(=O)(=O)N2` (stereo in doubt) [Compound 87], the “Ent. B Max Activity” value is given as “+++ (+++ is >60%)” and the EC50 is under 1000 nM.

Values taken from US20230374038A1, “MODULATORS OF CYSTIC FIBROSIS TRANSMEMBRANE CONDUCTANCE REGULATOR” (VERTEX PHARMACEUTICALS INCORPORATED, priority 2020, published 2023).
